pIC50: −log10 of the molar value.
target: Met kinase (Homo sapiens, UniProt P08581); experiment: Met kinase inhibition (cell); type: cell-based
Sequence (P08581 25-1390): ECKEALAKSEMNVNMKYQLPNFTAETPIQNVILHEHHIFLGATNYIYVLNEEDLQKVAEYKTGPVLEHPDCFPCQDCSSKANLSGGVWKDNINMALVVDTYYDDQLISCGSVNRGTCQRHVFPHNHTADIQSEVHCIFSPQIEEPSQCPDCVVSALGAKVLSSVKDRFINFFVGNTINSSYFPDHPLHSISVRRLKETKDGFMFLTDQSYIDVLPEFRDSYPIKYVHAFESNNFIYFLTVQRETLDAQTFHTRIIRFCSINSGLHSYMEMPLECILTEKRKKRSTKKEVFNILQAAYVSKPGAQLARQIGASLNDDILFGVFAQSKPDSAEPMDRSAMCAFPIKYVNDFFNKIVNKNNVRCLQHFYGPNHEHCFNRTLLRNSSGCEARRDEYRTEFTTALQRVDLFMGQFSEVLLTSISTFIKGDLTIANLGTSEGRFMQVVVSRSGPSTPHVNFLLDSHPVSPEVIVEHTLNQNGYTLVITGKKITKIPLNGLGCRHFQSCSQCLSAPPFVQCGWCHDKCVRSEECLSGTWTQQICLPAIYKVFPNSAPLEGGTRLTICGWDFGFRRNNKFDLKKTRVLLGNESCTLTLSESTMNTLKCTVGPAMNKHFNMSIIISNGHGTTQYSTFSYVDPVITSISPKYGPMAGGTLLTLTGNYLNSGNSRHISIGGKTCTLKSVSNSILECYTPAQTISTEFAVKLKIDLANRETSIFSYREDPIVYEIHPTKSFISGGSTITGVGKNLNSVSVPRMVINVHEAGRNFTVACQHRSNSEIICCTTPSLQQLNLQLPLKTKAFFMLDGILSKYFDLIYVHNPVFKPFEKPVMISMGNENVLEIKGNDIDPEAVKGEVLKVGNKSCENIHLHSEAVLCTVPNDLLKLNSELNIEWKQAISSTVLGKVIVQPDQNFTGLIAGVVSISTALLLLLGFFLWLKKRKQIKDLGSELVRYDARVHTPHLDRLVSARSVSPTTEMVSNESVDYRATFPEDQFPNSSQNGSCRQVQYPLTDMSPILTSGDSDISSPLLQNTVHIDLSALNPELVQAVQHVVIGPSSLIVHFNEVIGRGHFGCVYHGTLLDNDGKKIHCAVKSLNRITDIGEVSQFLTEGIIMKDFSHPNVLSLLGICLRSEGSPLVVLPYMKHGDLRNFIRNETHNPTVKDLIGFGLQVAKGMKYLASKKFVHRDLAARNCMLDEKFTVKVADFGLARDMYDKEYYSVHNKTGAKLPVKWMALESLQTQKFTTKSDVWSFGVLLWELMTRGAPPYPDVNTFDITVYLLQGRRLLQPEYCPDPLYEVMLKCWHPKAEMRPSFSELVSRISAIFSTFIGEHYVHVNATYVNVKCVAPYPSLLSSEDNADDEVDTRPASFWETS

Question: Cn1cc(-c2ccc3nnc(Cc4cccc(-c5ncc(-c6cnn(CCN7CCCC7)c6)cn5)c4)n3n2)cn1 [Compound A2, 6-(1-methyl-1H-pyrazol-4-yl)-3-(3-{5-[1-(2-pyrrolidin-1-yl-ethyl)-1H-pyrazol-4-yl]pyrimidin-2-yl}benzyl)-1,2,4-triazolo[4,3-b]pyridazine] was tested. Which pIC50 did it give?
Answer: 7.00 to 9.00

Question: With Cc1ccc2nnc(C(F)(F)c3cccc(-c4ncc(OCCN5CCOCC5)cn4)c3)n2n1 [Compound A28, 3-(difluoro-{3-[5-(2-morpholin-4-ylethoxy)pyrimidin-2-yl]-phenyl}methyl)-6-methyl-1,2,4-triazolo[4,3-b]pyridazine] as the molecule, how does the pIC50 read?
Answer: 7.00 to 9.00

Question: With Cn1cc(-c2ccc3nnc(Cc4cccc(-c5ncc(O)cn5)c4)n3n2)cn1 [Compound A30, 2-{3-[6-(1-methyl-1H-pyrazol-4-yl)-1,2,4-triazolo[4,3-b]pyridazin-3-yl-methyl]phenyl}pyrimidin-5-ol] as the molecule, how does the pIC50 read?
Answer: 5.00 to 7.00

Question: With COCCOc1cnc(-c2cccc(C(F)(F)c3nnc4ccc(-c5cnn(C)c5)nn34)c2)nc1 [Compound A31, 3-(difluoro-{3-[5-(2-methoxyethoxy)pyrimidin-2-yl]phenyl}methyl)-6-(1-methyl-1H-pyrazol-4-yl)-1,2,4-triazolo[4,3-b]pyridazine] as the molecule, how does the pIC50 read?
Answer: 7.00 to 9.00

Question: Cn1cc(-c2ccc3nnc(C(F)(F)c4cccc(-c5ncc(OCCO)cn5)c4)n3n2)cn1 [Compound A32, 2-[2-(3-{difluoro-[6-(1-methyl-1H-pyrazol-4-yl)-1,2,4-triazolo[4,3-b]pyridazin-3-yl]methyl}phenyl)pyrimidin-5-yloxy]ethanol] was tested. Which pIC50 did it give?
Answer: 7.00 to 9.00

Question: How did the pIC50 turn out when COCCOc1cnc(-c2cccc(Cc3nnc4ccc(-c5cnn(C)c5)nn34)c2)nc1 [Compound A33, 3-{3-[5-(2-methoxyethoxy)pyrimidin-2-yl]benzyl}-6-(1-methyl-1H-pyrazol-4-yl)-1,2,4-triazolo[4,3-b]pyridazine] was run?
Answer: 5.00 to 7.00

Question: Cn1cc(-c2ccc3nnc(Cc4cccc(-c5ncc(OCCO)cn5)c4)n3n2)cn1 [Compound A34, 2-(2-{3-[6-(1-methyl-1H-pyrazol-4-yl)-1,2,4-triazolo[4,3-b]pyridazin-3-ylmethyl]-phenyl}pyrimidin-5-yloxy)ethanol] was tested. Which pIC50 did it give?
Answer: 7.00 to 9.00

Question: COc1cnc(-c2cccc(Cc3nnc4ccc(-c5cnn(C)c5)nn34)c2)nc1 [Compound A35, 3-[3-(5-methoxypyrimidin-2-yl)benzyl]-6-(1-methyl-1H-pyrazol-4-yl)-1,2,4-triazolo[4,3-b]pyridazine] was tested. Which pIC50 did it give?
Answer: 7.00 to 9.00

Question: With COCCCOc1cnc(-c2cccc(Cc3nnc4ccc(-c5cnn(C)c5)nn34)c2)nc1 [Compound A36, 3-{3-[5-(3-methoxypropoxy)pyrimidin-2-yl]benzyl}-6-(1-methyl-1H-pyrazol-4-yl)-1,2,4-triazolo[4,3-b]pyridazine] as the molecule, how does the pIC50 read?
Answer: 7.00 to 9.00

Question: With CN1CCN(CCOc2cnc(-c3cccc(Cc4nnc5ccc(-c6cnn(C)c6)nn45)c3)nc2)CC1 [Compound A37, 3-(3-{5-[2-(4-methylpiperazin-1-yl)ethoxy]pyrimidin-2-yl}benzyl)-6-(1-methyl-1H-pyrazol-4-yl)-1,2,4-triazolo[4,3-b]pyridazine] as the molecule, how does the pIC50 read?
Answer: 7.00 to 9.00

Question: CN1CCC(COc2cnc(-c3cccc(C(F)(F)c4nnc5ccc(-c6cnn(C)c6)nn45)c3)nc2)CC1 [Compound A42, 3-(difluoro-{3-[5-(1-methylpiperidin-4-ylmethoxy)pyrimidin-2-yl]-phenyl}methyl)-6-(1-methyl-1H-pyrazol-4-yl)-1,2,4-triazolo[4,3-b]pyridazine] was tested. Which pIC50 did it give?
Answer: 7.00 to 9.00

Question: How did the pIC50 turn out when Cc1cnc(-c2cccc(Cc3nnc4ccc(-c5cnn(CCO)c5)nn34)c2)nc1 [Compound A44, 2-(4-{3-[3-(5-methyl-pyrimidin-2-yl)benzyl]-1,2,4-triazolo[4,3-b]pyridazin-6-yl}pyrazol-1-yl)ethanol] was run?
Answer: 7.00 to 9.00

Source: patent publication US8497266B2, “3-(3-pyrimidin-2-ylbenzyl)-1,2,4-triazolo[4,3-b]pyridazine derivatives as MET kinase inhibitors” (Merck Patent GmbH, priority 2008, dated 2013)
